Source: ChEMBL document CHEMBL5537195, “Novel Covalent Probe Selectively Targeting Glutathione Peroxidase 4 In Vivo: Potential Applications in Pancreatic Cancer Therapy” (J Med Chem, 2024)
Active and inactive are the calls of the source. The rule behind the calls is not given here.

Legend:
[1] = tested on: ASPC1; assay: Induction of ferroptosis in human ASPC1 cells assessed as reduction in cell viability incubated for 72 hrs followed by compound washout by CCK-8 assay; type: functional, cell-based; settings: ASPC1, 72 h
[2] = target: T1, Phospholipid hydroperoxide glutathione peroxidase GPX4 (Homo sapiens) (UniProt P36969); assay: Binding affinity to GPX4 in human ASPC1 cells at 0.2 uM by SDS-PAGE analysis; type: cell-based; settings: time 0.1 hrs, TDE = time-dependent effect
T1 sequence (whole entry): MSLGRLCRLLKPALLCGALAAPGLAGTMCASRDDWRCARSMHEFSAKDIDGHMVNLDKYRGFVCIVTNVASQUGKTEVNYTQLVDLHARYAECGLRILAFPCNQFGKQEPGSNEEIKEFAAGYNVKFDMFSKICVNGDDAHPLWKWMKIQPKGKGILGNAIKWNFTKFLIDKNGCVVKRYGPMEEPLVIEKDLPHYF

[3] = tested on: Capan-2; assay: Antiproliferative activity against human Capan-2 cells assessed as inhibition of cell growth incubated for 72 hrs by CCK-8 assay; type: functional, cell-based
[4] = tested on: ASPC1; assay: Induction of ferroptosis in human ASPC1 cells assessed as effect on ROS level at 1 uM incubated for 3 hrs in absence of […]; type: functional, cell-based
[5] = target: T1, Phospholipid hydroperoxide glutathione peroxidase GPX4 (Homo sapiens); assay: Binding affinity to GPX4 in human ASPC1 cells at 0.2 uM incubated for 1 hr in presence of 4-(((4-(benzo[d]thiazol-2-yl)phenyl)(methyl)amino)methyl)-N-ethynyl-N-methylbenzenesulfonamide by SDS-PAGE analysis; type: cell-based
[6] = tested on: BXPC-3; assay: Antiproliferative activity against human BXPC-3 cells assessed as inhibition of cell growth incubated for 72 hrs by CCK-8 assay; type: functional, cell-based; settings: BXPC-3, 72 h
[7] = target: T1, Phospholipid hydroperoxide glutathione peroxidase GPX4 (Homo sapiens); assay: Binding affinity to GPX4 in human CFPAC-1 cells at 0.2 uM incubated for 1 hr by SDS-PAGE analysis; type: cell-based
[8] = tested on: SW1990; assay: Antiproliferative activity against human SW1990 cells assessed as inhibition of cell growth incubated for 72 hrs by CCK-8 assay; type: functional, cell-based; settings: SW1990, 72 h
[9] = target: T1, Phospholipid hydroperoxide glutathione peroxidase GPX4 (Homo sapiens); assay: Binding affinity to GPX4 in human ASPC1 cells incubated for 1 hr by SDS-PAGE analysis; type: cell-based; settings: dose 0.02-0.2 µM
[10] = target: T1, Phospholipid hydroperoxide glutathione peroxidase GPX4 (Homo sapiens); assay: Competitive binding affinity to GPX4 in human ASPC1 cells at 0.2 uM incubated for 1 hr in presence of ML162 by immunofluorescence based confocal microscopic analysis; type: cell-based
[11] = tested on: ASPC1; assay: Induction of ferroptosis in human ASPC1 cells with siRNA mediated GPX4 knockdown assessed as reduction in cell viability incubated for 72 hrs by CCK-8 assay; type: functional, cell-based
[12] = target: T2, Phosphoglycerate kinase 1 (Homo sapiens) (UniProt P00558); assay: Binding affinity to PGK1 in human ASPC1 cells at 1 uM incubated for 5 hrs by Western blot analysis; type: cell-based
T2 sequence (whole entry): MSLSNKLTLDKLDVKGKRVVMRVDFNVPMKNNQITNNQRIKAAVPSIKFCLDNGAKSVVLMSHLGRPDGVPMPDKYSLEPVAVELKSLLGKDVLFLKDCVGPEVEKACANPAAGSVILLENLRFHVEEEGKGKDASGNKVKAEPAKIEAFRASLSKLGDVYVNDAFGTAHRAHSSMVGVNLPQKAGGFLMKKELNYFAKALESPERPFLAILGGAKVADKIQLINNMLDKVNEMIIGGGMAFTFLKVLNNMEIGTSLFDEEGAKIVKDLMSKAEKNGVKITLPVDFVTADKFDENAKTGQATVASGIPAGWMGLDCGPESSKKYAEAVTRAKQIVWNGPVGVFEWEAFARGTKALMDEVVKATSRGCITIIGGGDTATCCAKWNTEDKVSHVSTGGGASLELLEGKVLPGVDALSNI

[13] = tested on: HCT-116; assay: Induction of ferroptosis in human HCT-116 cells assessed as reduction in cell viability incubated for 72 hrs by CCK-8 assay; type: functional, cell-based; settings: HCT-116, 72 h
[14] = target: T1, Phospholipid hydroperoxide glutathione peroxidase GPX4 (Homo sapiens); assay: Competitive binding affinity to GPX4 in human ASPC1 cells at 0.2 uM incubated for 1 hr in presence of 4-(((4-(benzo[d]thiazol-2-yl)phenyl)(methyl)amino)methyl)-N-ethynyl-N-methylbenzenesulfonamide by immunofluorescence based confocal microscopic analysis; type: cell-based
[15] = tested on: ASPC1; assay: Induction of ferroptosis in human ASPC1 cells assessed as reduction in cell viability incubated for 48 hrs by CCK-8 assay; type: functional, cell-based; settings: ASPC1, 48 h
[16] = tested on: MIA PaCa-2; assay: Antiproliferative activity against human MIA PaCa-2 cells assessed as inhibition of cell growth incubated for 72 hrs by CCK-8 assay; type: functional, cell-based; settings: MIA PaCa-2, 72 h
[17] = target: T1, Phospholipid hydroperoxide glutathione peroxidase GPX4 (Homo sapiens); assay: Competitive binding affinity to GPX4 (unknown origin) at 0.2 uM incubated for 5 hrs in presence of 4-(((4-(benzo[d]thiazol-2-yl)phenyl)(methyl)amino)methyl)-N-ethynyl-N-methylbenzenesulfonamide by pull-down based Western blot analysis
[18] = target: T3, Fructose-bisphosphate aldolase A (Homo sapiens) (UniProt P04075); assay: Binding affinity to ALDOA in human ASPC1 cells at 1 uM incubated for 5 hrs by Western blot analysis; type: cell-based
T3 sequence (whole entry): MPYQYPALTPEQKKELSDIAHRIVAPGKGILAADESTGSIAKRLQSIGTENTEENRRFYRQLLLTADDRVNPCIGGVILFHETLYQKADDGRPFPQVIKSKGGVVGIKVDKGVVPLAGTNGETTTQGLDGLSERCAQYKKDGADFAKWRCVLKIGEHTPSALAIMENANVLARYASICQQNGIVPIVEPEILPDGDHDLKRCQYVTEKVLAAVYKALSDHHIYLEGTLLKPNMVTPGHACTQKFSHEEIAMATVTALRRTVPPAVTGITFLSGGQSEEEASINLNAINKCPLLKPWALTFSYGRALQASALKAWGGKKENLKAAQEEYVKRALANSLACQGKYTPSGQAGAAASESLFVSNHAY

[19] = AUC (0 to t) in Sprague-Dawley rat at 2 mg/kg, iv measured upto 48 hrs by LC-MS/MS analysis; type: ADME, organism-based; settings: in vivo
[20] = target: T1, Phospholipid hydroperoxide glutathione peroxidase GPX4 (Homo sapiens); assay: Binding affinity to GPX4 in human Capan-2 cells at 0.2 uM incubated for 1 hr by SDS-PAGE analysis; type: cell-based
[21] = tested on: ASPC1; assay: Antitumor activity against human ASPC1 cells xenografted in NOD-SCID mouse assessed as reduction in tumor volume at 10 mg/kg, ip administered for 14 days; type: functional, organism-based; settings: time 14.0 day
[22] = target: T1, Phospholipid hydroperoxide glutathione peroxidase GPX4 (Homo sapiens); assay: Binding affinity to GPX4 in human ASPC1 cells incubated for 1 hr by imaging analysis; type: cell-based; settings: dose 0.2-5 µM
[23] = target: Large ribosomal subunit protein eL28 (Homo sapiens) (UniProt P46779); assay: Binding affinity to RL28 in human ASPC1 cells at 1 uM incubated for 5 hrs by Western blot analysis; type: cell-based
[24] = target: T1, Phospholipid hydroperoxide glutathione peroxidase GPX4 (Homo sapiens); assay: Binding affinity to GPX4 in human ASPC1 cells at 0.2 uM incubated for 1 hr by immunofluorescence based confocal microscopic analysis; type: cell-based
[25] = tested on: ASPC1; assay: Antitumor activity against human ASPC1 cells xenografted in NOD-SCID mouse assessed as reduction in tumor weight at 10 mg/kg, ip administered for 14 days; type: functional, organism-based; settings: time 14.0 day

C#CCN(Cc1ccc(S(=O)(=O)N(C)C#C)cc1)c1ccc(-c2nc3ccccc3s2)cc1
IC50 [1]: 29 nM
Activity [2]: Tde
Activity [3]: inactive
Activity [4]: Active
Activity [5]: Active
IC50 [6]: 20 nM
Activity [7]: Active
IC50 [8]: 20 nM
Activity [9]: Dose-Dependent Effect
Activity [10]: inactive
Activity [11]: Active
Activity [12]: Active
IC50 [13]: > 10000 nM
Activity [14]: inactive
IC50 [15]: 26 nM
IC50 [16]: 20 nM
Activity [17]: Active
Activity [18]: Active
AUC(0-t) at 48 h [19]: 915 ng·h/mL
Activity [20]: inactive
Activity [21]: Active
Activity [22]: Dose-Dependent Effect
Activity [23]: Active
Activity [24]: Active
Activity [25]: Active
